Laboratory results from patent US8008260B2, “Methods of protecting against apoptosis using lipopeptides” (Cleveland Clinic Foundation, priority 2005, dated 2011).
Peptide text beside a SMILES is read from it. * marks the point of attachment. Propyl(2R-PamO,3-PamO) = CCCCCCCCCCCCCCCC(=O)OC[C@H](C*)OC(=O)CCCCCCCCCCCCCCC

Key:
[1] = Solubility of the lipopeptides
ICR mice = experiment: Radiation LD50/30 and dose modification factor (DMF30); type: in vivo
Protocol: To determine DMF (dose modification factor), 3 μg of CBLB601/mouse was injected i.m. 24 hr prior to irradiation and control mice were injected with PBS. Both drug-injected and control groups received a single dose of TBI covering the dose range that leads to 10-90% mortality within the chosen time intervals (7 days for the gastrointestinal syndrome mortality, and 30 days for the hematopoietic syndrome mortality). The percent mortality-radiation dose graphs were built and LD50/7 and LD50/30 (LD50 at 7 days and 30 days, respectively) were calculated using probit or logit statistical analysis. DMF (also known as dose reduction factor, DRF) was calculated as a ratio of radiation LD50 for CBLB601-treated groups and radiation LD50 for vehicle-treated groups of mice for the chosen survival time point, 7 or 30 days. To calculate DMF30, which is the DMF at day 30 post-irradiation, the radiation LD50/30 values for mice treated with PBS or 3 μg of CBLB601 was determined. For this, PBS-injected groups were irradiated with doses of 6, 6.5, 7, and 7.7 Gy of TBI, and CBLB601-injected groups were irradiated with doses of 10, 10.5, 11, 11.5, and 12 Gy of TBI. […] However, inconsistency in the response to some radiation doses (7 Gy appeared non-toxic whereas 6.5 Gy caused 60% lethality at 30 days) in the control mice precluded an accurate calculation of the DMF30 for CBLB601. Nevertheless, it was expected that the LD50/30 for ICR mice was around 7 Gy [an average for the majority of mouse strains; Monobe et al., Radiother Oncology 73 Suppl 2: S12709, 2004)]. Thus, the value of DMF30 for CBLB601 was estimated roughly as ˜1.6.

NIH Swiss mice = experiment: Protection from lethal total body gamma radiation, lipopeptides s.c. 30 minutes prior; type: in vivo; conditions: for survival post-treatment: <0.1 MTD
Protocol: Lipopeptides are potent activators of NF-κB and, as such, may act as inhibitors of apoptotic death. To determine whether lipopeptides function as radioprotectants, various lipopeptides were initially tested to determine the maximal tolerable dose (MTD). Various lipopeptides were then tested to measure their protective effect in NIH Swiss mice to lethal hematopoietic or nd gastrointestinal syndromes after exposure to 10 Gy or 13-15 Gy of total body gamma radiation, respectively. Lipopeptides (0.3-10 μg/mouse) were administered subcutaneously 30 minutes prior to irradiation.
The results of a representative experiment using R-PAM2C-SKKKK (SEQ ID NO: 8) (hereafter, this compound is called, CBLB601) at <0.1 MTD are shown in FIG. 3. As expected, control mice irradiated with 10 Gy died between 11 and 15 days post-treatment, while all animals that received CBLB601 lived beyond 35 days post-treatment. Similarly, control mice irradiated with 13 Gy died between 6 and 10 days post-treatment, while all but one animal that received CBLB601 lived beyond 35 days post-treatment. The radioprotective ability of CBLB601 was further analyzed by measuring the effect of radiation on spleen size.

[2] = 3 μg/mouse i.m. 24 hr prior to irradiation, ProBit analysis

CCCCCCCCCCCCCCCC(=O)OC[C@H](CSC[C@H](N)C(=O)N[C@@H](CO)C(=O)N[C@@H](CCCCN)C(=O)N[C@@H](CCCCN)C(=O)N[C@@H](CCCCN)C(=O)N[C@@H](CCCCN)C(=O)O)OC(=O)CCCCCCCCCCCCCCC [CBLB601, R-PAM2C-SKKKK] (H-C(Propyl(2R-PamO,3-PamO))SKKKK-OH)
Solubility [1]: Excellent
radiation LD50/30, average (ICR mice; [2]): ~11.32 Gy
radiation LD50/30, range (ICR mice; [2]): 11.07-11.61 Gy
DMF30 (dose modification factor at day 30) (ICR mice; 3 μg/mouse i.m. 24 hr prior, control LD50/30 taken as around 7 Gy from literature): ~1.6
survival post-treatment (NIH Swiss mice; 10 Gy, all animals): > 35 days
effect of radiation on spleen size (NIH Swiss mice; 13 Gy total body gamma irradiation (FIG. 4)): significantly less reduction in the size of the spleen
survival post-treatment (NIH Swiss mice; 13 Gy, all but one animal): > 35 days
protection of the thymus from radiation (NIH Swiss mice; data not shown): protected the thymus from radiation
